{"source": "patent US20230056593A1", "about": "“ARGININE ASPARTATE-CONTAINING COMPOSITION FOR SUPPRESSING OLD PERSON SMELL” (HUMEDIX CO., LTD., priority 2020, published 2023)", "key": {"Procollagen": {"tested_on": "Procollagen", "experiment": "Collagen synthesis ability in human skin fibroblasts (Type I Procollagen C-Peptide EIA kit)", "assay_type": "cell-based", "experimental": "Human skin fibroblasts were cultured at a concentration of 1×10^4/well. The cells were treated with each sample, and the amount of synthesized collagen was measured to evaluate the collagen synthesis ability. The cells were treated with adenosine at a concentration of 50 ppm as a positive control and arginine aspartate at a concentration of 10, 20 and 40 ppm. Collagen quantification was performed using a Type I Procollagen C-Peptide EIA kit (Takara, Japan). A group in which the cells were not treated with sample was used as a control group (CON)."}, "MMP-1": {"tested_on": "MMP-1", "experiment": "MMP-1 expression level in human skin fibroblasts (PCR)", "assay_type": "cell-based", "experimental": "Human skin fibroblasts were cultured at a concentration of 1×10^4/well. The cells were treated with arginine aspartate for each concentration, and the MMP-1 expression level was measured using a PCR device to evaluate the ability of arginine aspartate to inhibit MMP-1. A group in which the cells were not treated with the sample was used as a control group (CON), and a group in which the cells were treated with 50 ppm of adenosine was used as a positive control group."}, "mushroom tyrosinase": {"tested_on": "mushroom tyrosinase", "experiment": "Whitening effect: mushroom tyrosinase activity (absorbance at 490 nm)", "assay_type": "biochemical", "details": "for Tyrosinase activity (% of control): 37° C. for 10 minutes, pH 6.8", "experimental": "After adding 200 μL of 0.1M phosphate buffer (pH 6.8) to the Eppen tube, 20 μL of each sample solution diluted at each concentration was added. Then, 20 μL of mushroom tyrosinase (2,000 units/μL) and 200 μL of 0.3% tyrosine were added in order, and then reacted at 37° C. for 10 minutes. After 200 μL of this solution was transferred to a 96-well plate, absorbance was measured at 490 nm using an ELISA reader. 100 ppm arbutin was used as a positive control."}, "TNF-α": {"tested_on": "TNF-α", "experiment": "Anti-inflammatory effect: TNF-α expression in UVB-stimulated HaCaT cells (RT-PCR)", "assay_type": "cell-based", "details": "UVB stimulation", "experimental": "HaCaT cells were seeded in a 12-well plate by 1×10^5 cells/well, and after 24 hours, they were replaced with a basal medium and starvated for 6 hours. After that, the medium was replaced with the basal medium containing the sample and the cells were incubated for 24 hours. After removal of the medium, UVB stimulation was applied, and the basal medium was added and the cells were cultured for 24 hours. The medium was completely removed and the cells were washed twice with PBS. The cells were disrupted using TRIsure to recover RNA, and then RT-PCR was performed to amplify TNF-α. Electrophoresis was performed on an agarose gel and the expression rate was measured using the Gel Documentation system. 200 μM dexamethasone was used as a positive control."}, "[1]": {"experiment": "Removal of 2-nonenal by arginine aspartate (HPLC over time)", "details": "0.05 wt % 2-nonenal treated with 2.5 wt % arginine aspartate, room temperature, after 20 hours", "experimental": "The ability of the arginine aspartate of Formula (I) according to the present invention to remove 2-nonenal was evaluated.\n2-Nonenal was dissolved at a concentration of 0.1 wt % (1000 ppm) in 50 wt % ethanol aqueous solution containing 0.5 wt % Tween 80. Arginine aspartate was dissolved at a concentration of 5 wt % (50000 ppm) in a 50 wt % ethanol aqueous solution containing 0.5 wt % Tween 80.\nThe two solutions were mixed in a 1:1 ratio by weight to make a mixed solution. The mixed solution was left at room temperature and the change in the amount of 2-nonenal was analyzed by HPLC over time. That is, the change in the amount of 2-nonenal over time was analyzed by treating 0.05 wt % 2-nonenal with arginine aspartate at a concentration of 2.5 wt %.\nFurther, the 2-nonenal solution prepared above was diluted two-fold with a 50 wt % ethanol aqueous solution containing 0.5 wt % Tween 80 and the diluted solution was left at room temperature to analyze the change in the amount of 2-nonenal over time by HPLC. That is, the change in the amount of 2-nonenal over time was analyzed in a condition of 0.05 wt % of 2-nonenal untreated with arginine aspartate."}}}
{"compound": "Nc1ncnc2c1ncn2[C@@H]1O[C@H](CO)[C@@H](O)[C@H]1O", "note": "[Adenosine, adenosine, reference compound]", "values": [{"measurement": "Type I procollagen C-peptide level (% of control)", "setting": "Procollagen; 50 ppm", "result": "142.2 % of control"}, {"measurement": "MMP-1 gene expression level (% of control)", "setting": "MMP-1; 50 ppm", "result": "73.9 % of control"}]}
{"compound": "OC[C@H]1O[C@@H](Oc2ccc(O)cc2)[C@H](O)[C@@H](O)[C@@H]1O", "note": "[Arbutin, arbutin, reference compound]", "values": [{"measurement": "Tyrosinase activity (% of control)", "setting": "mushroom tyrosinase; 10 ppm", "result": "93.6 % of control"}, {"measurement": "Tyrosinase activity (% of control)", "setting": "mushroom tyrosinase; 100 ppm", "result": "76.7 % of control"}]}
{"compound": "C[C@@H]1C[C@H]2[C@@H]3CCC4=CC(=O)C=C[C@]4(C)[C@@]3(F)[C@@H](O)C[C@]2(C)[C@@]1(O)C(=O)CO", "note": "[Dexamethasone, dexamethasone, reference compound]", "values": [{"measurement": "TNF-α gene expression level (% of control)", "setting": "TNF-α; 50 ppm (table)", "result": "66.9 % of control"}]}
{"compound": "arginine aspartate", "values": [{"measurement": "collagen synthesis compared to the control group (CON)", "setting": "Procollagen; 10, 20 and 40 ppm", "result": "increase in collagen synthesis"}, {"measurement": "Type I procollagen C-peptide level (% of control)", "setting": "Procollagen; 10 ppm", "result": "123.6 % of control"}, {"measurement": "Type I procollagen C-peptide level (% of control)", "setting": "Procollagen; 20 ppm", "result": "133.0 % of control"}, {"measurement": "Type I procollagen C-peptide level (% of control)", "setting": "Procollagen; 40 ppm", "result": "136.8 % of control"}, {"measurement": "amount of 2-nonenal decreased", "setting": "[1]", "result": 74, "unit": "%"}, {"measurement": "amount of 2-nonenal left compared to the initial 100% by weight", "setting": "[1]", "result": 26, "unit": "% by weight"}, {"measurement": "Tyrosinase activity (% of control)", "setting": "mushroom tyrosinase; 10 ppm", "result": "72.5 % of control"}, {"measurement": "inhibition in tyrosinase activity", "setting": "mushroom tyrosinase; 100 ppm", "result": 28.3, "unit": "%"}, {"measurement": "Tyrosinase activity (% of control)", "setting": "mushroom tyrosinase; 100 ppm", "result": "71.7 % of control"}, {"measurement": "TNF-α gene expression level (% of control)", "setting": "TNF-α; 10 ppm", "result": "76.0 % of control"}, {"measurement": "TNF-α gene expression level (% of control)", "setting": "TNF-α; 20 ppm", "result": "72.9 % of control"}, {"measurement": "TNF-α gene expression level (% of control)", "setting": "TNF-α; 40 ppm", "result": "72.6 % of control"}, {"measurement": "decrease in TNF-α expression level", "setting": "TNF-α; 40 ppm", "result": 37.4, "unit": "%"}, {"measurement": "MMP-1 gene expression level (% of control)", "setting": "MMP-1; 10 ppm", "result": "86.7 % of control"}, {"measurement": "MMP-1 gene expression level (% of control)", "setting": "MMP-1; 20 ppm", "result": "82.2 % of control"}, {"measurement": "MMP-1 gene expression level (% of control)", "setting": "MMP-1; 40 ppm", "result": "76.6 % of control"}, {"measurement": "inhibitory effect on MMP-1", "setting": "MMP-1; 40 ppm", "result": 23.4, "unit": "%"}]}
